From PMC4674756, “NMR structure and function of Helicoverpa armigera sterol carrier protein-2, an important insecticidal target from the cotton bollworm” (Scientific Reports, 2015)

Tests used:
[1] = test system: Helicoverpa armigera larvae; assay: Cholesterol levels in fat body of larvae treated with SCP-2 inhibitors; type: in vivo; details: fat body dissected at 5th instar
Description: To investigate the effects of SCPI suppression on cholesterol absorption and accumulation in the fat body, in vivo experiments were conducted. The inhibitory effects of SCPIs on cholesterol uptake were tested at the early stages of 3rd and 4th instar larvae. H. armigera larvae were treated with SCPI-1 and mangostin. Because the fat body of insects is the main tissues of cholesterol storage, the fat bodies of the treated larvae were dissected at 5th instar and the concentration of cholesterol in the fat body was measured. […] Similarly, for the mangostin treatment group, there was a 2-fold decrease in the cholesterol levels (p = 0.05) (Fig. 9B 3rd) when the treatment started at 3rd instar stadium. […]
Figure 9 The levels of cholesterol in Helicoverpa armigera larvae treated by SCP-2 inhibitors. The cholesterol levels in the fat body of Helicoverpa armigera larvae which were treated with two inhibitors (AeSCPI-1 and mangostin) were determined. […] The concentration of cholesterol and total protein from each sample were measured. […] Larvae were treated and samples were measured in the same way as AeSCPI-1. […]
The H.armigera larvae were reared according to previous methods. […] Because the fat body of insects is the main tissue of cholesterol storage, the fat bodies of the treated larvae were dissected at 5th instar and the concentration of cholesterol in the fat body was measured. […]

HaSCP-2 = HaSCP-2 (Helicoverpa armigera, UniProt K7NSY9); assay: biochemical
Chain of HaSCP-2 (K7NSY9 entry or part of it): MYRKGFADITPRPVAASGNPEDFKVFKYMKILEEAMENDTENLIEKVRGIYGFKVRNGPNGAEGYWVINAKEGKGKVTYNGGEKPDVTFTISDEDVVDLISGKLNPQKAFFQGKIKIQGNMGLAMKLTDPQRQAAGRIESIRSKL
Description: In the presence of each SCPI with an increasing concentrations (0–10 μM), HaSCP-2 (with final concentration of 5 μM) was incubated with NBD-cholesterol (with final concentration of 1.25 μM) in 100 μl of 10 mM KHPO4 buffer (pH 7.5) at 25 °C. Mixture samples were added into 96-well plates and fluorescence intensity was measured on the microplate reader (GeminiXPS, Molecular Devices). Excitation was at 485 nm and emission was measured at 530 nm. The results are analyzed from three repeated experiments with standard deviations. All the data were processed using a single site competition, non-linear regression model in the GraphPad PRISM software version 4.0 (GraphPad). The 50% effective concentration (EC50) was obtained using the equation 2:

[2] = molecular target: truncated HaSCP-2 (trHaSCP-2) (Helicoverpa armigera, UniProt K7NSY9); assay: NBD-cholesterol binding assay, truncated (wild type) HaSCP-2; details: NBD-cholesterol 0.25 μM, protein 25 nM to 15 μM, one site binding non-linear regression, R^2 = 0.99
Chain of truncated HaSCP-2 (trHaSCP-2) (K7NSY9 entry or part of it): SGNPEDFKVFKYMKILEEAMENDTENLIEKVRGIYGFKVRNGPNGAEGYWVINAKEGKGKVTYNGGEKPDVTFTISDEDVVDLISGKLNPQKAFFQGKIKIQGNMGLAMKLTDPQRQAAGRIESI
Description: (§1) NBD-cholesterol binding assays were performed to investigate the biological function of HaSCP-2 in this study. Both the recombinant full length and trHaSCP-2 were examined for NBD-cholesterol binding (Kd). Glutathione S-transferase (GST) was used as a negative control as before. The final concentration of NBD-cholesterol was kept constant at 0.25 μM and the concentration of full length or truncated HaSCP-2 was tested in a range from 25 nM to 15 μM. The increasing concentration of full length or truncated HaSCP-2 led to the increase in the fluorescence emission value of NBD-cholesterol. […] The binding curves were analyzed by using the one site binding non-linear regression model adopted in the similar studies. […] It is quite likely that the N-terminal and C-terminal residues that were deleted may not be necessary for the ligand binding activity of HaSCP-2, as shown that no significant differences in binding affinity between the truncated HaSCP-2 and full length HaSCP-2.
(§2) HaSCP-2 binding activity to cholesterol was determined by using NBD-cholesterol binding assays. […] Then, the samples were applied to measure the fluorescence signals using a fluorescence microplate reader (GeminiXPS, Molecular Devices). Fluorescence was excited at 485 nm and the emission was measured at 530 nm. […]

full length HaSCP-2 = full length HaSCP-2 (Helicoverpa armigera, UniProt K7NSY9); assay: NBD-cholesterol binding assay, full length (deduced) HaSCP-2; details: NBD-cholesterol 0.25 μM, protein 25 nM to 15 μM, one site binding non-linear regression, R^2 = 0.99
Chain of full length HaSCP-2 (K7NSY9 entry or part of it): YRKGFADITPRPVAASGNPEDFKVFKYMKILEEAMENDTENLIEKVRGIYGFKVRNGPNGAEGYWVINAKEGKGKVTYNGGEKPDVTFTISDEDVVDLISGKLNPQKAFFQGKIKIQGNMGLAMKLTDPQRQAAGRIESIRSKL
Description: as §1, §2

HaSCP-2 F110W = HaSCP-2 F110W (Helicoverpa armigera, UniProt K7NSY9, F500W); type: binding; details: mutant F110W; P vs WT 0.019
Chain of HaSCP-2 F110W (K7NSY9 entry or part of it F500W): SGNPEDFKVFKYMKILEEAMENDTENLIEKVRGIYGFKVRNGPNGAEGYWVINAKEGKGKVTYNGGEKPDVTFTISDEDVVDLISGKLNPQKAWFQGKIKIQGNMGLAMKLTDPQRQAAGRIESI
Source text: (§3) In order to further confirm the key residues of HaSCP-2 that are involved in the ligand binding, based on the HaSCP-2 structure and docking simulation results we selected several predicted amino acid residues as shown in Table 3 (cholesterol and β-sitosterol) to perform single site mutation experiments to investigate the mechanism of ligand binding in HaSCP-2.
(§4) Single site amino acid mutations in the pGEX-KG/trHaSCP-2 were introduced using the QuikChange II Site-Directed Mutagenesis kit (Stratagene, La Jolla, CA). The Y51, F53, F89, I91, F110, I117 and Q131 sites of HaSCP-2 were selected to perform mutation.
(§5) HaSCP-2 binding activity to cholesterol was determined by using NBD-cholesterol binding assays. In truncation experiments, deduced HaSCP-2 and truncated HaSCP-2 were used for NBD-cholesterol binding assay; while as in mutation experiment, truncated HaSCP-2 (defined as wild type HaSCP-2) and mutated HaSCP-2 were assayed. HaSCP-2 was diluted in 10 mM KHPO4 buffer (pH 7.4) to a serial of varied concentrations […], respectively.

HaSCP-2 F53A = HaSCP-2 F53A (Helicoverpa armigera, UniProt K7NSY9, F443A); type: binding; details: mutant F53A; P vs WT 0.031
Chain of HaSCP-2 F53A (K7NSY9 entry or part of it F443A): as the sequence (K7NSY9 entry or part of it F500W) above, with F37A, W94F counted along it
Source text: as §3, §4, §5

HaSCP-2 F53W = HaSCP-2 F53W (Helicoverpa armigera, UniProt K7NSY9, F443W); type: binding; details: mutant F53W; P vs WT 0.026
Chain of HaSCP-2 F53W (K7NSY9 entry or part of it F443W): as the sequence (K7NSY9 entry or part of it F500W) above, with F37W, W94F counted along it
Source text: as §3, §4, §5

HaSCP-2 F89A = HaSCP-2 F89A (Helicoverpa armigera, UniProt K7NSY9, F479A); type: binding; details: mutant F89A; P vs WT 0.038
Chain of HaSCP-2 F89A (K7NSY9 entry or part of it F479A): as the sequence (K7NSY9 entry or part of it F500W) above, with F73A, W94F counted along it
Source text: as §3, §4, §5

HaSCP-2 I117M = HaSCP-2 I117M (Helicoverpa armigera, UniProt K7NSY9, I507M); type: binding; details: mutant I117M; P vs WT 0.043
Chain of HaSCP-2 I117M (K7NSY9 entry or part of it I507M): as the sequence (K7NSY9 entry or part of it F500W) above, with W94F, I101M counted along it
Source text: as §3, §4, §5

HaSCP-2 Q131A = HaSCP-2 Q131A (Helicoverpa armigera, UniProt K7NSY9, Q521A); type: binding; details: mutant Q131A; P vs WT 0.034
Chain of HaSCP-2 Q131A (K7NSY9 entry or part of it Q521A): as the sequence (K7NSY9 entry or part of it F500W) above, with W94F, Q115A counted along it
Source text: as §3, §4, §5

HaSCP-2 Y51A = HaSCP-2 Y51A (Helicoverpa armigera, UniProt K7NSY9, Y441A); type: binding; details: mutant Y51A; P vs WT 0.023
Chain of HaSCP-2 Y51A (K7NSY9 entry or part of it Y441A): as the sequence (K7NSY9 entry or part of it F500W) above, with Y35A, W94F counted along it
Source text: as §3, §4, §5

Structure (SMILES)	cholesterol levels in the fat body vs control group ([1]; larvae treated at 3rd instar stage via diet, p = 0.023)	EC50 (HaSCP-2)	Kd [2]	Kd (full length HaSCP-2)	Kd (HaSCP-2 F110W)	Kd (HaSCP-2 F53A)	Kd (HaSCP-2 F53W)	Kd (HaSCP-2 F89A)	Kd (HaSCP-2 I117M)	Kd (HaSCP-2 Q131A)	Kd (HaSCP-2 Y51A)	decrease in the cholesterol levels in the fat body ([1]; treatment started at 3rd instar stadium via diet, p = 0.05)
Br.CC(=O)Nc1ccc(Nc2nc(-c3ccc(Cl)c(Cl)c3)cs2)cc1 [AeSCPI-1, N-(4-{[4-(3,4-dichlorophenyl)-1,3-thiazol-2-yl]amino}phenyl) acetamide hydrobromide]	significantly lower	760 nM	–	–	–	–	–	–	–	–	–	–
C[C@H](CNc1ccc([N+](=O)[O-])c2nonc12)[C@H]1CC[C@H]2[C@@H]3CC=C4C[C@@H](O)CC[C@]4(C)[C@H]3CC[C@]12C [NBD-cholesterol]	–	–	2450 nM	2800 nM	3240 nM	3070 nM	3410 nM	3270 nM	1800 nM	3770 nM	2650 nM	–
COc1c(O)cc2oc3cc(O)c(CC=C(C)C)c(O)c3c(=O)c2c1CC=C(C)C [α-mangostin, 1,3,6-trihydroxy-7-methoxy-2,8-bis(3-methylbut-2-enyl)-9H-xanthen-9-one]	–	730 nM	–	–	–	–	–	–	–	–	–	2 fold
